Columns and labels:
HuH6 cells = test: Two-photon photobleaching test and excitation profile in fixed HuH6 cells; parameters: species or system human; details: λex=860 nm, 30 mins, 400 Hz, laser output power 2.55 W
Protocol: To further assess a possible toxicity of the Dyes@BNNT, we performed an additional set of experiments at the scale of a cell. We incubated 10 μg·mL^−1 of a PEG-6T@BNNT solution for 24 hours with human hepatoblastoma HuH6 cells, which is one of the model cell lines used for toxicology studies. […] FIGS. 5a and 5c show fluorescence spectra consistent with DiA (green) and PEG-6T@BNNT (red) separated in the regions 2 and 1, respectively. […] The fluorescence of both the DiA and PEG-6T@BNNT, as a function of the excitation wavelength between 740 nm and 1020 nm, is shown in FIG. 5d. The resonance maximum of DiA is measured at 880 nm, which is distinct from the resonance of the PEG-6T@BNNT located at ˜740 nm, a position similar to that of functionalized polythiophene. […] To directly compare exposed and non-exposed cells, FIG. 5b presents a two-photon hyperspectral fluorescence image taken in a field of view slightly larger than the photobleaching test area. […]
3.2 Characterization by Raman and Photoluminescence. […] The equipment of the different setups is summarized in Table S2 and are described as follows: • The Luminescence images and photobleaching experiments, as presented in FIG. 3, main text, were performed at λex=532 nm using the Raman/PL mapping system RIMA™ (Photon etc.). […]

Daphnia pulex = test: Incubation of Daphnia pulex with samples in FLAMES medium, evaluation of potential toxicity; assay type: in vivo
From the text: The impressive robustness and fading-free properties of the Dyes@BNNT are appealing for bio-imaging applications. FIG. 4 presents an example of the use of nanohybrids to make optical nanoprobes for imaging living Daphnia pulex microorganisms in water—see bright-field image in FIG. 4a #1. Daphnia (also called water fleas) are common planktonic crustaceans, which find use as chemical sensors in ecotoxicology studies, thanks to their high sensitivity to water quality. To acquire the bio-images (FIG. 4a #2-5), we first solubilized the Dyes@BNNTs in a water-based living medium called FLAMES, using a poly (ethylene) glycol derivative (mPEG-DSPE) (Supplementary Section 2.9). […] Living daphniids were imaged under a fluorescence microscope equipped with UBG filter and a 10× objective. […] This natural blue-green signal originates from the auto-fluorescence of the tissues in FLAMES through the UBG filter, which disappears after death or after few minutes only of photobleaching. […]
Before any experiment, many adult individuals of Daphnia pulex (clones DISP 1312) were kept at 22° C. in FLAMES with algae for 4 days, allowing a new reproducing cycle. Then, the specimens were transferred to a FLAMES medium algae-free and maintained this condition for at least 1 day to clean the digestive system and limit the fluorescence from the algae themselves during the images/time lapse acquisition—FIG. 8. […]

[1] = Chemical stability on Si/SiO2: oxygen plasma, thermal annealing, piranha; assay type: physicochemical; details: oxygen plasma of 100 W for 10 minutes
Protocol: The chemical stability of the nanohybrids is tested using individualized 6T@BNNT bundles on Si/SiO2 exposed to an oxygen plasma of 100 W for 10 minutes. […] The enhanced stability of the encapsulated dyes has also been observed upon thermal annealing up to 350° C. in air and using piranha solutions (not shown). […] The chemical and physical stability experiments have been repeated on a number of Dyes@BNNT nanohybrids of different lengths deposited on substrates or dispersed in a solution (See e.g. Supplementary Figs. 10 and 11). All of the results lead us to the same conclusion, which underlines the tremendous gain in stability inferred by the confinement of the 1D cavity of BNNTs.

SMILES | fluorescence after two-photon photobleaching test (HuH6 cells) | state of daphniids after first incubation test (Daphnia pulex; free 6T in FLAMES, incubation time of only few minutes) | time after which individuals died (Daphnia pulex; group B, incubated directly with 6T at 100 ug/mL) | change in PL after oxygen plasma [1]
CCCCC/C=C\C/C=C\CCCCCCCCN(CCCCCCCC/C=C\C/C=C\CCCCC)c1ccc(C=Cc2cc[n+](C)cc2)cc1.O=S(=O)([O-])c1ccc(Cl)cc1 [DiA] | significantly photo-bleached |  |  | 
c1csc(-c2ccc(-c3ccc(-c4ccc(-c5ccc(-c6cccs6)s5)s4)s3)s2)c1 [6T, α-sexithiophene] |  | found dead | 20 h | completely vanished

Reference: US11982676B2, “Near-infrared fluorescent nanoprobe” (VALORISATION-RECHERCHE, LIMITED PARTNERSHIP, priority 2021, dated 2024)
